The nature of data set [1]: MSCR test, percentage elastic recovery. Format: physicochemical. As to conditions: bitumen 20/30 + 5% compound.
The conditions of data set [2]: bitumen 20/30 + 5% compound.
The nature of data set [3]: Softening point ring & ball of rejuvenated bitumen. To be noted: bitumen 20/30 rejuvenated with 5% of the compound, 180° C., 30 minutes.

As for `CC(COCC1CO1)(COCC1CO1)c1ccccc1` (stereo not shown) [2-Methyl-2-phenyl-1,3-propandiol bis glycidylether], in data set [1], the “MSCR % Rec. (0.1 kPa)” value is listed as 8%, the “MSCR % Rec. (1.6 kPa)” value is recorded as 3% and the “MSCR % Rec. (3.2 kPa)” value was 1%. Besides, in data set [2], the “η(135° C.) [mPas]” value is given as 900 mPas. For the same compound, the “SP [° C.] (softening point)” value in data set [3] was 52.0 °C.
The corresponding values for `CC(C)CCCCCCOC(=O)c1ccccc1C(=O)OCCCCCCC(C)C` [Palatinol ® DINP, diisononyl phthalate] are 9%, 3%, 1%, 950 mPas and 52.0 °C.
Turning to Dodecenyl succinic acid anhydride, in data set [2], the “η(135° C.) [mPas]” value was 950 mPas.
With Polyethylenglycol bis glycidylether, in data set [1], the “MSCR % Rec. (0.1 kPa)” value amounted to 16%, the “MSCR % Rec. (1.6 kPa)” value worked out at 10% and the “MSCR % Rec. (3.2 kPa)” value is listed as 5%. The “η(135° C.) [mPas]” value in data set [2] is listed as 1,000 mPas. Further, the “SP [° C.] (softening point)” value in data set [3] was 57.0 °C.

Values taken from patent US20230220206A1, “REJUVENATING AGENTS FOR ASPHALT RECYCLING” (BASF SE, priority 2020, published 2023).
